Data on 2 molecules can be found in article PMC11594329, “Development of LAT1-Selective Nuclear Medicine Therapeutics Using Astatine-211” (International Journal of Molecular Sciences, 2024).

Each structure is given as a SMILES string. Entries after “also recorded” stand apart in the source; their conditions may differ.

One series deals with PANC-1 cells. Briefly: Uptake in PANC-1 cell line. Type of series: cell-based. The following applies: for Uptake of optical isomers: %ID/mg protein. The procedure:
Each cell line was seeded in 24 wells at 1 × 10^5 cells/mL and allowed to become sub-confluent on the day of the experiment. Cells were washed with PBS (-) (Fujifilm Wako Pure Chemical, Osaka, Japan) prior to the addition of the compound, which was then replaced with uptake buffer. After treating the cells with the same dose, they were collected at predetermined time points. The cell dose was measured using a γ-counter (Wizard^2 2480; PerkinElmer, Waltham, MA, USA), and the protein content of the sample was determined. Protein content was measured using the BCA method, and the dose was corrected using the protein content (Protein Assay BCA kit, Fujifilm Wako Pure Chemical).
Figure 2 Comparison of uptake between the labeled compounds. (A) Relation between uptake ratio and LAT1 expression level. Uptake ratios were compared between LAT1-Tet/HEK293 cells. The Y-axis represents the uptake ratio, and the X-axis is concentration of Doxycycline (Dox) (TaKaRa Bio, Shiga, Japan). The collection time was 30 min after treatment. The expression of LAT1 increased with increasing amounts of Dox. (B) Comparison of uptake in PANC-1 cell line. The collection times were 0.5, 1, 5 and 10 min after treatment.
Figure 3 Comparison of intracellular uptake of […]-AAMT-O-Me L-isomer and ^211At-AAMT-O-Me D-isomer of ^211At-AAMT-O-Me. (A) Uptake in Mock/HEK293, LAT1/HEK293, and […] lines. (B) Uptake in PANC-1 cells. The y-axis represents %ID/mg protein. BCH: -Amino-2-norbornanecarboxylic acid. BCH was treated at 20 mM. ** p < 0.01, *** p < 0.001.
The PANC-1 cell line was obtained from the RIKEN Cell Bank and maintained in RPMI 1640 medium (Fujifilm Wako Pure Chemical, Osaka, Japan) supplemented with 10% inactivated fetal bovine serum (Thermo Fisher Scientific, Waltham, MA, USA). Mock/HEK293, LAT1/HEK293, and LAT2/HEK203 cells were kindly provided by Dr. Kanai. Cell lines controlling LAT1 expression were constructed using the Tet-on system. […]

Series [1] can be described thus: Urinary and fecal excretion in ICR mice. It counts as in vivo. The procedure:
(§1) Urinary excretion levels were also examined (Supplementary Table S1). Comparing the D-isomer and L isomer of ^211At-AAMT-O-Me from ICR mice, the D-isomer; 24.84 ± 13.03% ID, L-isomer; 33.69 ± 1.26% ID at 1 h after injection. D-isomer; 71.36 ± 4.67% ID, L-isomer; 23.99 ± 2.40% ID at 3 h after injection. From PANC-1 tumor bearing mice, D-isomer; 35.24 ± 8.70% ID, L-isomer; 20.40 ± 0.76% ID at 1 h after injection. D-isomer; 47.38 ± 3.19% ID, L-isomer; 3.23 ± 0.67% ID at 3 h after injection. In tumor-bearing models, the amount of excretion was smaller than that in normal mice. We have already reported that, in the presence of target cancer tissue for administered drugs, retention in the cancer tissue results in reduced excretion compared with normal animals. […] The same was also observed for feces, but very little was excreted in the feces. The results were as follows: from ICR mice, D-isomer; 0.06 ± 0.03% ID, L-isomer; 0.004 ± 0.003% ID at 1 h after injection. D-isomer; 0.02 ± 0.01% ID, L-isomer; 0.02 ± 0.01% ID at 3 h after injection. From PANC-1 tumor bearing mice, D-isomer; 0.25 ± 0.12% ID, L-isomer; 0.002 ± 0.001% ID at 1 h after injection. D-isomer; 0.75 ± 0.46% ID; L-isomer; 0.07 ± 0.03% ID at 3 h after injection.
ICR mice (male, 5 weeks old) were purchased from Japan SLC (Shizuoka, Japan) and acclimated for one week prior to use. The doses in the distribution experiments were as follows: ^211At-AAMT-O-Me-L (0.407 ± 0.005 MBq/mouse, 31.64 ± 0.76 g, n = 6), ^211At-AAMT-O-Me-D (0.351 ± 0.004 MBq/mouse, 31.44 ± 0.94 g, n = 6), ^211At-AAMT-O-Et-L (0.685 ± 0.010 MBq/mouse, 24.14 ± 3.31 g, n = 6), ^211At-AAMT-O-Pr-L (1.09 ± 0.06 MBq/mouse, 26.33 ± 0.39 g, n = 6)

Series [2] can be described thus: Urinary and fecal excretion in PANC-1 tumor bearing mice. It counts as in vivo. As for the experimental part: as §1
BALB/c nu/nu mice (male, 5 weeks old) were purchased from Japan SLC (Shizuoka, Japan) and subcutaneously transplanted at a density of 1 × 10^7 cells/mouse. PANC-1 cells that reached the logarithmic growth phase were transplanted subcutaneously by mixing a 1 × 10^8 cells/mL cell suspension with an equivalent volume of Matrigel (Corning, Corning, NY, USA) to obtain 1 × 10^7 cells per mouse. Experiments were performed after the size of the transplanted tumor had exceeded 50 mm^3. The doses in the distribution experiments were as follows: ^211At-AAMT-OH-L (0.501 ± 0.011 MBq/mouse, 19.91 ± 0.59 g, n = 3) and ^211At-AAMT-O-Me-L (0.384 ± 0.003 MBq/mouse, 19.18 ± 0.38 g, n = 6 for Table 3), ^211At-AAMT-O-Me-L (158.10 ± 2.94 kBq/mouse, 19.27 ± 0.64 g, n = 6) and ^211At-AAMT-O-Me-D (135.08 ± 2.35 kBq/mouse, 18.64 ± 0.97 g, n = 6), ^211At-AAMT-O-Et-L (0.682 ± 0.011 MBq/mouse, 20.25 ± 1.41 g, n = 6), ^211At-AAMT-O-Pr-L (0.927 ± 0.020 MBq/mouse, 21.74 ± 0.37 g, n = 6).

Turning to `COc1ccc(C[C@](C)(N)C(=O)O)cc1[211At]` [^211At-AAMT-O-Me-L, (S)-2-amino-3-(3-(astato-^211At)-4-methoxyphenyl)-2-methylpropanic acid], the “Uptake of optical isomers” value in the series with PANC-1 cells is given as “taken up more”. In the series with PANC-1 cells (collection 0.5, 1, 5 and 10 min after treatment), the Time-dependent uptake entry was “highest uptake; also recorded: significantly higher uptake than the seed compound”. Also, the Excretion in feces in series [1] (1 h after injection) is given as 0.004 ± 0.003 % ID; in series [1] (3 h after injection), 0.02 ± 0.01 % ID; in series [2] (1 h after injection), 0.002 ± 0.001 % ID; in series [2] (3 h after injection) it was 0.07 ± 0.03 % ID. Moreover, the Urinary excretion in series [1] (1 h after injection) is recorded as 33.69 ± 1.26 % ID; in series [1] (3 h after injection), 23.99 ± 2.40 % ID; in series [2] (1 h after injection), 20.40 ± 0.76 % ID; in series [2] (3 h after injection), 3.23 ± 0.67 % ID.

Turning to `COc1ccc(C[C@@](C)(N)C(=O)O)cc1[211At]` [^211At-AAMT-O-Me-D], the “Uptake of optical isomers” value in the series on PANC-1 cells is “taken up less”. In addition, the Excretion in feces in series [1] (1 h after injection) came out at 0.06 ± 0.03 % ID; in series [1] (3 h after injection) it was 0.02 ± 0.01 % ID; in series [2] (1 h after injection) it was 0.25 ± 0.12 % ID; in series [2] (3 h after injection), 0.75 ± 0.46 % ID. Moreover, the Urinary excretion in series [1] (1 h after injection) was determined as 24.84 ± 13.03 % ID; in series [1] (3 h after injection), 71.36 ± 4.67 % ID; in series [2] (1 h after injection), 35.24 ± 8.70 % ID; in series [2] (3 h after injection), 47.38 ± 3.19 % ID. Also, the Urinary content entry in series [1] (after 3 h) is listed as “exceeded 70%”.
